US6710044B2, “Technical field” (NeuroSearch A/S, priority 1996, dated 2004)

Key:
[1] = target: benzodiazepine receptor sites (GABAA receptor complex); assay: In vitro inhibition of 3H-flunitrazepam (3H-FNM) binding, cerebral cortex membranes; settings: inhibition of specific binding of 3H-FNM (1 nM), rat cerebral cortex membranes, 40 min at 2° C.
Description: The affinity of various potential ligands for the benzodiazepine receptor sites can thus be evaluated by estimating the ability of test compounds to displace ^3H-flunitrazepam.
Tissue Preparation: Preparations are performed at 0-4° C. unless otherwise indicated.
Cerebral cortex from male Wistar rats (150-200 g) is homogenized for 5-10 sec in 20 ml Tris-HCl (30 mM, pH 7.4) using an Ultra-Turrax homogenizer. The suspension is centrifuged at 27,000×g for 15 min, and the pellet is washed three times with buffer (centrifuged at 27,000×g for 10 min). The washed pellet is homogenized in 20 ml of buffer and incubated on a water bath (37° C.) for 30 min to remove endogenous GABA and then centrifuged for 10 min at 27,000×g. The pellet is then homogenized in buffer and centrifuged for 10 min at 27,000×g. The final pellet is resuspended in 30 ml buffer and the preparation is frozen and stored at −20° C.
Assay: The membrane preparation is thawed and centrifuged at 2° C. for 10 min at 27,000×g. The pellet is washed twice with 20 ml 50 mM Tris-citrate, pH 7.1 using an Ultra-Turrax homogenizer and centrifuged for 10 min at 27,000×g. The final pellet is resuspended in 50 mM Tris-citrate, pH 7.1 (500 ml buffer per g of original tissue), and then used for binding assays. Aliquots of 0.5 ml tissue are added to 25 μl of test solution and 25 μl of ^3H-FNM (1 nM, final concentration), mixed and incubated for 40 min at 2° C. Non-specific binding is determined using clonazepam (1 μM, final concentration). After incubation the samples are added 5 ml of ice-cold buffer and poured directly onto Whatman GF/C glass fibre filters under suction and immediately washed with 5 ml ice-cold buffer. The amount of radioactivity on the filters is determined by conventional liquid scintillation counting. Specific binding is total binding minus non-specific binding.
The test value is calculated as the IC50 (the concentration (nM) of the test substance which inhibits the specific binding of ^3H—FNM by 50%).

Compound	melting point	IC50 [1]
CCOC(=O)c1cccc(-n2cnc3cc(-c4ccno4)ccc32)c1 [compound 6a2, 5-(5-Isoxazolyl)-1-(3-ethoxycarbonyl)phenyl benzimidazole]	156 to 157 °C	3 nM
COC(=O)Cc1ccc2c(c1)ncn2-c1cccc(N2CCN(C)CC2)c1.Cl [compound 4l1, 5-(Methoxycarbonylmethyl)-1-(3-(4-methylpiperazin-1-yl)phenyl)benzimidazole, hydrochloride]	140 to 142 °C	25 nM
O=C(OCc1ccccn1)c1cccc(-n2cnc3cc(-c4ccccc4)ccc32)c1 [compound 6b3, 5-Phenyl-1-(3-(2-picolyloxycarbonyl)phenyl)benzimidazole]	149 to 150 °C	8 nM
N#Cc1ccc2c(c1)ncn2-c1cccc(N2CCCC2)c1 [compound 3a2, 5-Cyano-1-(3-(1-pyrrolidinyl)phenyl)benzimidazole]	171 to 172 °C	41 nM
OCCN1CCN(c2cccc(-n3cnc4cc(-c5ccoc5)ccc43)c2)CC1 [compound 3i3, 5-(3-Furanyl)-1-(3-(4-(2-hydroxyethyl)piperazin-1-yl)phenyl)benzimidazole]	137 to 140 °C	5 nM
